# Reference: paper PMC10838953
# What was measured:
# PARP = conditions: 786-O cells; 2.5-15 μM; 48 h
# [1] = system: RPTEC (renal proximal tubule epithelial cells); experiment: cells; conditions: Homo sapiens, read-out: IC50 cell viability
# [2] = molecular target: ABL1(F317I)-nonphosphorylated (Homo sapiens, UniProt P00519, F317I); experiment: biochemical; conditions: read-out: %Ctrl @ 2000nM
# [3] = molecular target: ABL1(H396P)-nonphosphorylated (Homo sapiens, UniProt P00519, H396P); experiment: biochemical; conditions: read-out: %Ctrl @ 2000nM
# [4] = molecular target: ABL1(T315I)-nonphosphorylated (Homo sapiens, UniProt P00519, T315I); experiment: biochemical; conditions: read-out: %Ctrl @ 2000nM
# ACVRL1 = ACVRL1 (Homo sapiens, UniProt P37023); experiment: biochemical; conditions: read-out: %Ctrl @ 2000nM
# ADCK3 = ADCK3 (Homo sapiens, UniProt Q8NI60); experiment: biochemical; conditions: read-out: %Ctrl @ 2000nM
# AKT1 = AKT1 (Homo sapiens, UniProt P31749); experiment: biochemical; conditions: read-out: %Ctrl @ 2000nM
# AMPK-alpha2 = AMPK-alpha2 (Homo sapiens, UniProt P54646); experiment: biochemical; conditions: read-out: %Ctrl @ 2000nM
# BMX = BMX (Homo sapiens, UniProt P51813); experiment: biochemical; conditions: read-out: %Ctrl @ 2000nM
# CAMK2G = CAMK2G (Homo sapiens, UniProt Q13555); experiment: biochemical; conditions: read-out: %Ctrl @ 2000nM
# CAMKK1 = CAMKK1 (Homo sapiens, UniProt Q8N5S9); experiment: biochemical; conditions: read-out: %Ctrl @ 2000nM
# CDKL5 = CDKL5 (Homo sapiens, UniProt O76039); experiment: biochemical; conditions: read-out: %Ctrl @ 2000nM
# CSK = CSK (Homo sapiens, UniProt P41240); experiment: biochemical; conditions: read-out: %Ctrl @ 2000nM
# Sequence of CSK (P41240 whole entry): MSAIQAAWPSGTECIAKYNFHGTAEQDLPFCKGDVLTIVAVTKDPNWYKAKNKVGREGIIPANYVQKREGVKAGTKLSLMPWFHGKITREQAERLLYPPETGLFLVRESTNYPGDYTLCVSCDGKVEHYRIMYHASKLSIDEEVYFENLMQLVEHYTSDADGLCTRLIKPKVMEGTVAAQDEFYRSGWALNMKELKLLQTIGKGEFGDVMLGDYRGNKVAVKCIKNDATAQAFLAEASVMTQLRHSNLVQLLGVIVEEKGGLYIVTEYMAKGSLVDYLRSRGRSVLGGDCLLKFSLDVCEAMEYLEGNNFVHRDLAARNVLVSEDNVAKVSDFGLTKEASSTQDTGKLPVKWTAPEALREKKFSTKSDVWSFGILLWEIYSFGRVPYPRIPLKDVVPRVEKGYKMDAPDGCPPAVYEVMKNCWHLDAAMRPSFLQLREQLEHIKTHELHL
# CSNK2A2 (CK2α′) = CSNK2A2 (CK2α′) (Homo sapiens, UniProt P19784); experiment: biochemical
# Sequence of CSNK2A2 (CK2α′) (P19784 whole entry): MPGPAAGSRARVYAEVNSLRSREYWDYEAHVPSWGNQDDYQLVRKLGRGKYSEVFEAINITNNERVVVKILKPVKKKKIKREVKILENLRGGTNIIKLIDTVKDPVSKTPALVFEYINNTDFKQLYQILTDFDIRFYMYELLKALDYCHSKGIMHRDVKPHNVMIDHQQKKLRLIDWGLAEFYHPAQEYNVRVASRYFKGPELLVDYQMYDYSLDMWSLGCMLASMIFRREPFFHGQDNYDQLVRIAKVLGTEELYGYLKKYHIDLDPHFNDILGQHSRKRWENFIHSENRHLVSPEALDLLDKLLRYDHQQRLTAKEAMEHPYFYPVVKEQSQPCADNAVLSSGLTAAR
# EPHA1 = EPHA1 (Homo sapiens, UniProt P21709); experiment: biochemical; conditions: read-out: %Ctrl @ 2000nM
# EPHA5 = EPHA5 (Homo sapiens, UniProt P54756); experiment: biochemical; conditions: read-out: %Ctrl @ 2000nM
# ERBB4 = ERBB4 (Homo sapiens, UniProt Q15303); experiment: biochemical; conditions: read-out: %Ctrl @ 2000nM
# FES = FES (Homo sapiens, UniProt P07332); experiment: biochemical; conditions: read-out: %Ctrl @ 2000nM
# FLT3(N841I) = FLT3(N841I) (Homo sapiens, UniProt P36888, N841I); experiment: biochemical; conditions: read-out: %Ctrl @ 2000nM
# JNK2 = JNK2 (Homo sapiens, UniProt P45984); experiment: biochemical; conditions: read-out: %Ctrl @ 2000nM
# LZK = LZK (Homo sapiens, UniProt O43283); experiment: biochemical; conditions: read-out: %Ctrl @ 2000nM
# Sequence of LZK (O43283 whole entry): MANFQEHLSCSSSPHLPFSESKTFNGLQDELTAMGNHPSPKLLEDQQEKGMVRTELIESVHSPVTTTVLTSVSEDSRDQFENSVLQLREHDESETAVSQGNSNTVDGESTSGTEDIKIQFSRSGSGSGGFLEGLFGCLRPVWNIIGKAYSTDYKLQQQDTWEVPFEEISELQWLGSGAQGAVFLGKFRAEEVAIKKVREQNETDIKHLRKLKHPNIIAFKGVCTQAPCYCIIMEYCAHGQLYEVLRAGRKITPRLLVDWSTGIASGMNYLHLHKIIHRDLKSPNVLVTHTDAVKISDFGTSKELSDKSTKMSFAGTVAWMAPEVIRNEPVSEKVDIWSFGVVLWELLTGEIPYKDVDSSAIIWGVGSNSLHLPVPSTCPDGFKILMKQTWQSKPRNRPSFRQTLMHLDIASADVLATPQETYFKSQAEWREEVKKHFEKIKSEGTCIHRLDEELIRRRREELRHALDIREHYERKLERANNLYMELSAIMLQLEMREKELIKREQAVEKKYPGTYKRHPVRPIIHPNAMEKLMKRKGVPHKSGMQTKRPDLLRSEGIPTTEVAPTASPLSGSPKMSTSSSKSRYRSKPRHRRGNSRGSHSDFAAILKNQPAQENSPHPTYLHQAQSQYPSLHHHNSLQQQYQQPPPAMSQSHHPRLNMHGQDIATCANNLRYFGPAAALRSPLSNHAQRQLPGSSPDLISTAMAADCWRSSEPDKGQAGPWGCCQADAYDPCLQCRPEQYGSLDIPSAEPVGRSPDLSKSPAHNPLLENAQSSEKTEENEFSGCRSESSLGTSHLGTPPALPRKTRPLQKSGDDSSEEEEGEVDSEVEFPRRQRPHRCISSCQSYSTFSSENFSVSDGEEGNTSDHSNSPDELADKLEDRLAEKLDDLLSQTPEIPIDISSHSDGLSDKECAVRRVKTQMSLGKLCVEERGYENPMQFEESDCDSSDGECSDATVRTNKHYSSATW
# MAP4K2 = MAP4K2 (Homo sapiens, UniProt Q12851); experiment: biochemical; conditions: read-out: %Ctrl @ 2000nM
# Sequence of MAP4K2 (Q12851 whole entry): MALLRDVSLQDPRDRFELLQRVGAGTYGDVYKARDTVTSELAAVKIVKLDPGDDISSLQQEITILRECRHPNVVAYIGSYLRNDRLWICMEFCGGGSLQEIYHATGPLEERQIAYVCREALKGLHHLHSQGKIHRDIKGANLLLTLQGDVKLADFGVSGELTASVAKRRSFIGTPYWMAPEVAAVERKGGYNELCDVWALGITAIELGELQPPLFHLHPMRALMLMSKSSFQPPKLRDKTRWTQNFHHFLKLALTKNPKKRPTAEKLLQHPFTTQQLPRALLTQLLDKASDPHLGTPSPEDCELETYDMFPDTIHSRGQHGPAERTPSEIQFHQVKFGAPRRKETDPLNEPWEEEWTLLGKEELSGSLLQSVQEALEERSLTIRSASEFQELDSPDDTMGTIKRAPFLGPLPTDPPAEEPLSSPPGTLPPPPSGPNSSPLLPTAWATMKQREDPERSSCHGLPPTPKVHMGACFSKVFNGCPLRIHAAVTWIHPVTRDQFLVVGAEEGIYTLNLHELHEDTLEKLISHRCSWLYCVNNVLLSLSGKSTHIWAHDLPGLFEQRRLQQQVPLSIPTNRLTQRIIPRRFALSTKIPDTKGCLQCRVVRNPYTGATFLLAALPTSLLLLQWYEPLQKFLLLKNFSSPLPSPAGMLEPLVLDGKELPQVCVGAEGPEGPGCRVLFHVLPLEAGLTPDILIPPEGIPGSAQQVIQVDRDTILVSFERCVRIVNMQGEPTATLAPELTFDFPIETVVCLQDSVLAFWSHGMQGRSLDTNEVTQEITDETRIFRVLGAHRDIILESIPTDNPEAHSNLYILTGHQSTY
# MST2 = MST2 (Homo sapiens, UniProt Q13188); experiment: biochemical; conditions: read-out: %Ctrl @ 2000nM
# NDR2 = NDR2 (Homo sapiens, UniProt Q9Y2H1); experiment: biochemical; conditions: read-out: %Ctrl @ 2000nM
# NEK1 = NEK1 (Homo sapiens, UniProt Q96PY6); experiment: biochemical; conditions: read-out: %Ctrl @ 2000nM
# NEK11 = NEK11 (Homo sapiens, UniProt Q8NG66); experiment: biochemical; conditions: read-out: %Ctrl @ 2000nM
# NEK7 = NEK7 (Homo sapiens, UniProt Q8TDX7); experiment: biochemical; conditions: read-out: %Ctrl @ 2000nM
# Sequence of NEK7 (Q8TDX7 whole entry): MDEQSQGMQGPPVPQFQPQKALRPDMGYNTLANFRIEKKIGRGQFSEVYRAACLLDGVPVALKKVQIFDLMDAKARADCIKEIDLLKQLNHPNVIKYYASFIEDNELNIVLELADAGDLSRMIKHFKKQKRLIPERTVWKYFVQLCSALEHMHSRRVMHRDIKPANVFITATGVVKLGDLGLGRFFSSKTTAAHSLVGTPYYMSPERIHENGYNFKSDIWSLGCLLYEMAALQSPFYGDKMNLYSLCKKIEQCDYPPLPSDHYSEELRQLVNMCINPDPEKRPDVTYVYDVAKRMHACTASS
# PFPK5(P.falciparum) = PFPK5(P.falciparum) (Plasmodium falciparum, UniProt P61075); experiment: biochemical; conditions: read-out: %Ctrl @ 2000nM
# Sequence of PFPK5(P.falciparum) (P61075 whole entry): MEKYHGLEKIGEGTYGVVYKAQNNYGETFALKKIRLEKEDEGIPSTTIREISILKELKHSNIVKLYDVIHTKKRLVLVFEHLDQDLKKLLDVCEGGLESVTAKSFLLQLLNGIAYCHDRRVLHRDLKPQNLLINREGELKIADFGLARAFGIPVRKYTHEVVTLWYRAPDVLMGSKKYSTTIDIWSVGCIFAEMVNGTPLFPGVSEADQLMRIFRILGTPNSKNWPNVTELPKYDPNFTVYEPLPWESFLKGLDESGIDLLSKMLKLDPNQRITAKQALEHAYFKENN
# PFTAIRE2 = PFTAIRE2 (Homo sapiens, UniProt Q96Q40); experiment: biochemical; conditions: read-out: %Ctrl @ 2000nM
# PIK3CA = PIK3CA (Homo sapiens, UniProt P42336); experiment: biochemical; conditions: read-out: %Ctrl @ 2000nM
# PIP5K1C = PIP5K1C (Homo sapiens, UniProt O60331); experiment: biochemical; conditions: read-out: %Ctrl @ 2000nM
# PKN2 = PKN2 (Homo sapiens, UniProt Q16513); experiment: biochemical; conditions: read-out: %Ctrl @ 2000nM
# PRKD3 = PRKD3 (Homo sapiens, UniProt O94806); experiment: biochemical; conditions: read-out: %Ctrl @ 2000nM
# PRKR = PRKR (Homo sapiens, UniProt P19525); experiment: biochemical; conditions: read-out: %Ctrl @ 2000nM
# PYK2 = PYK2 (Homo sapiens, UniProt Q14289); experiment: biochemical; conditions: read-out: %Ctrl @ 2000nM
# Sequence of PYK2 (Q14289 whole entry): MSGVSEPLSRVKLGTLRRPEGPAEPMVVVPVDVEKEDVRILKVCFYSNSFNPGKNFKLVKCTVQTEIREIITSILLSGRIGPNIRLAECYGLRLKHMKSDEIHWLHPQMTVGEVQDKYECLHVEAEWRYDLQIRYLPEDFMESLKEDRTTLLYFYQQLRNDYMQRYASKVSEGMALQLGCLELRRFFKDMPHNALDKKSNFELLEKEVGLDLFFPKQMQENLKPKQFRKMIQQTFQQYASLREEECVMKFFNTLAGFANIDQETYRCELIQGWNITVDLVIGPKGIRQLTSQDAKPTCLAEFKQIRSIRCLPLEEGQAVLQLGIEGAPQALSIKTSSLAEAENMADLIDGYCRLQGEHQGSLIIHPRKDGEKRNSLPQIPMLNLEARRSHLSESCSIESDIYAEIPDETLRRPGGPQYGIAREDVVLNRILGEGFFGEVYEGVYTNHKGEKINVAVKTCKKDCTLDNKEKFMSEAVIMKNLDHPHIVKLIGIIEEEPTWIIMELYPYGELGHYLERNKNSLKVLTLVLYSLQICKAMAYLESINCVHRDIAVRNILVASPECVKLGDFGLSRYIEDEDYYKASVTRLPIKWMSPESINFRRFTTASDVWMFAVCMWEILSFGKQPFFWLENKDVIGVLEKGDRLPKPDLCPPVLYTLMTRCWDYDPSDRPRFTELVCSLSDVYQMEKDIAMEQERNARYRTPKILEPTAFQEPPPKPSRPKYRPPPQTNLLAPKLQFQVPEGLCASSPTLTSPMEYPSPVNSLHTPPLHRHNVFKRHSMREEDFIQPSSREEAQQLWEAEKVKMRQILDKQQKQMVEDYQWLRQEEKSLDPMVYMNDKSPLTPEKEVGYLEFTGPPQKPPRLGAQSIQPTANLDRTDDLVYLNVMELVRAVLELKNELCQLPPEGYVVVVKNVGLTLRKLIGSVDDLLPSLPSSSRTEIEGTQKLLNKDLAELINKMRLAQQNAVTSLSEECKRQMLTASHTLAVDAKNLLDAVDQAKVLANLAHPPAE
# RIPK4 = RIPK4 (Homo sapiens, UniProt P57078); experiment: biochemical; conditions: read-out: %Ctrl @ 2000nM
# ROS1 = ROS1 (Homo sapiens, UniProt P08922); experiment: biochemical; conditions: read-out: %Ctrl @ 2000nM
# [5] = molecular target: RSK4(Kin.Dom.2-C-terminal) (Homo sapiens, UniProt Q9UK32); experiment: biochemical; conditions: read-out: %Ctrl @ 2000nM
# Sequence of RSK4(Kin.Dom.2-C-terminal) (Q9UK32 401-745 limits assumed): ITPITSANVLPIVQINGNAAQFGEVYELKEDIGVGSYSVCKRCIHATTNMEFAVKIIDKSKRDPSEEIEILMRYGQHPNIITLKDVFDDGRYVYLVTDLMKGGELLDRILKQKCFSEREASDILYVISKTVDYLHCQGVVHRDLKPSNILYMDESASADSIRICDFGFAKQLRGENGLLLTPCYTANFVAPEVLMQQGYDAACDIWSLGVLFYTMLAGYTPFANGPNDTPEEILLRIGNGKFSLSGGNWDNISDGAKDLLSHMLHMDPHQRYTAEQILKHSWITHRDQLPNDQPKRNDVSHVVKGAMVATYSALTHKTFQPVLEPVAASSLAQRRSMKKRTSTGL
# TRPM6 = TRPM6 (Homo sapiens, UniProt Q9BX84); experiment: biochemical; conditions: read-out: %Ctrl @ 2000nM
# TSSK1B = TSSK1B (Homo sapiens, UniProt Q9BXA7); experiment: biochemical; conditions: read-out: %Ctrl @ 2000nM
# Sequence of TSSK1B (Q9BXA7 whole entry): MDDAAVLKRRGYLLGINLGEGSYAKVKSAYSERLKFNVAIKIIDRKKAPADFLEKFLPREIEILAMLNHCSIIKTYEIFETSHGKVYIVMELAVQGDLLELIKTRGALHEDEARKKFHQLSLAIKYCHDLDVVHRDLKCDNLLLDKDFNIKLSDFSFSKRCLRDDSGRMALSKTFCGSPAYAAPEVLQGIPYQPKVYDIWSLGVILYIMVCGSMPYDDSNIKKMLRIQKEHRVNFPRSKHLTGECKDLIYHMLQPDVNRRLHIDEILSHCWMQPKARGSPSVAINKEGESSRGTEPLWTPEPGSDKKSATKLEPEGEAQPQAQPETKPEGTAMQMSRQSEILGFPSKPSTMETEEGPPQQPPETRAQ
# VEGFR2 = VEGFR2 (Homo sapiens, UniProt P35968); experiment: biochemical; conditions: read-out: %Ctrl @ 2000nM
smiles,measurement,setting,value
"CC(C)COC(=O)c1[nH]c2ccc(F)cc2c1-c1cn(CC2CCN(CCNS(=O)(=O)c3ccc(CC(C)C)cc3)CC2)nn1 [AB668, isobutyl 5-fluoro-3-(1-((1-(2-((4-isobutylphenyl)sulfonamido)ethyl)piperidin-4-yl)methyl)-1H-1,2,3-triazol-4-yl)-1H-indole-2-carboxylate]",cleavage of PARP,PARP,cleavage of PARP
same,cytotoxicity,primary hepatocytes,no cytotoxicity
same,IC50,[1],> 100 µM
same,remaining activity at 2 µM,[2],79%
same,remaining activity at 2 µM,[3],97%
same,remaining activity at 2 µM,[4],64%
same,remaining activity at 2 µM,ACVRL1,90%
same,remaining activity at 2 µM,ADCK3,86%
same,remaining activity at 2 µM,AKT1,88%
same,remaining activity at 2 µM,AMPK-alpha2,100%
same,remaining activity at 2 µM,BMX,85%
same,remaining activity at 2 µM,CAMK2G,78%
same,remaining activity at 2 µM,CAMKK1,88%
same,remaining activity at 2 µM,CDKL5,91%
same,remaining activity at 2 µM,CSK,95%
same,remaining activity at 2 µM,CSNK2A2 (CK2α′); read-out: %Ctrl @ 2000nM,19%
same,inhibition at 2 µM,CSNK2A2 (CK2α′); read-out: inhibition (KINOMEscan profiling),81%
same,remaining activity at 2 µM,EPHA1,99%
same,remaining activity at 2 µM,EPHA5,100%
same,remaining activity at 2 µM,ERBB4,97%
same,remaining activity at 2 µM,FES,91%
same,remaining activity at 2 µM,FLT3(N841I),95%
same,remaining activity at 2 µM,JNK2,92%
same,remaining activity at 2 µM,LZK,100%
same,remaining activity at 2 µM,MAP4K2,100%
same,remaining activity at 2 µM,MST2,97%
same,remaining activity at 2 µM,NDR2,100%
same,remaining activity at 2 µM,NEK1,73%
same,remaining activity at 2 µM,NEK11,100%
same,remaining activity at 2 µM,NEK7,93%
same,remaining activity at 2 µM,PFPK5(P.falciparum),100%
same,remaining activity at 2 µM,PFTAIRE2,88%
same,remaining activity at 2 µM,PIK3CA,82%
same,remaining activity at 2 µM,PIP5K1C,87%
same,remaining activity at 2 µM,PKN2,85%
same,remaining activity at 2 µM,PRKD3,100%
same,remaining activity at 2 µM,PRKR,75%
same,remaining activity at 2 µM,PYK2,95%
same,remaining activity at 2 µM,RIPK4,100%
same,remaining activity at 2 µM,ROS1,89%
same,remaining activity at 2 µM,[5],94%
same,remaining activity at 2 µM,TRPM6,81%
same,remaining activity at 2 µM,TSSK1B,91%
same,remaining activity at 2 µM,VEGFR2,98%
